Measured values as given in patent US12258329B2 (Merck Sharp & Dohme LLC, priority 2018, dated 2025).

system: infected PBMCs (VSV-G pseudotyped HIV virus VSV-G/pNLG1-P2A-ΔEnv); test: cells; format: cell-based, human; conditions: Homo sapiens, PBMC, read-out: TACK EC50

Question: `Cc1nc(N)c(Cn2cnc(C(F)(F)C(F)F)c(Oc3cc(Cl)cc(C#N)c3F)c2=O)c(=O)[nH]1` [Example 39, 3-((1-((4-amino-2-methyl-6-oxo-1,6-dihydropyrimidin-5-yl)methyl)-6-oxo-4-(1,1,2,2-tetrafluoroethyl)-1,6-dihydropyrimidin-5-yl)oxy)-5-chloro-2-fluorobenzonitrile] was tested. Which EC50 did it give?
Answer: Its EC50 is 0.265 µM.

Question: With `Cc1nc(C)c(Cn2cnc(C(F)(F)C(F)F)c(Oc3c(Cl)cc(C#N)cc3Cl)c2=O)c(=O)[nH]1` [Example 97, 3,5-dichloro-4-((1-((2,4-dimethyl-6-oxo-1,6-dihydropyrimidin-5-yl)methyl)-6-oxo-4-(1,1,2,2-tetrafluoroethyl)-1,6-dihydropyrimidin-5-yl)oxy)benzonitrile] as the compound, how does the EC50 read?
Answer: The EC50 was 0.182 µM.

Question: `Cc1nc(C)c(Cn2cnc(C(C)F)c(Oc3cc(Cl)cc(C#N)c3F)c2=O)c(=O)[nH]1` (single isomer, unassigned) [Example 30] was tested. Which EC50 did it give?
Answer: Its EC50 is 0.206 µM.

Question: Which EC50 does the source give for `Cc1nc(C)c(Cn2cnc(C(F)(F)C(F)F)c(Oc3cc(Br)cc(C#N)c3)c2=O)c(=O)[nH]1` [Example 7, 3-bromo-5-((1-((2,4-dimethyl-6-oxo-1,6-dihydropyrimidin-5-y1)methyl)-6-oxo-4-(1,1,2,2-tetrafluoroethyl)-1,6-dihydropyrimidin-5-yl)oxy)benzonitrile] here?
Answer: The EC50 was 0.353 µM.

Question: `Cc1nc(C)c(Cn2cnc(C(F)(F)C(F)(F)F)c(Oc3c(F)ccc(C#N)c3F)c2=O)c(=O)[nH]1` [Example 71, 3-((1-((2,4-dimethyl-6-oxo-1,6-dihydropyrimidin-5-yl)methyl)-6-oxo-4-(perfluoroethyl)-1,6-dihydropyrimidin-5-yl)oxy)-2,4-difluorobenzonitrile] was tested. Which EC50 did it give?
Answer: The EC50 was 0.149 µM.

Question: How did the EC50 turn out when `Cc1nc(N)c(Cn2cnc(C(F)(F)C(F)F)c(Oc3cc(C(F)F)cc(C#N)c3C)c2=O)c(=O)[nH]1` [Example 59, 3-((1-((4-amino-2-methyl-6-oxo-1,6-dihydropyrimidin-5-yl)methyl)-6-oxo-4-(1,1,2,2-tetrafluoroethyl)-1,6-dihydropyrimidin-5-yl)oxy)-5-(difluoromethyl)-2-methylbenzonitrile] was run?
Answer: The EC50 was 0.135 µM.

Question: For `Cc1nc(CO)[nH]c(=O)c1Cn1cnc(C(F)(F)C(F)F)c(Oc2cc(C(F)F)cc(C#N)c2C)c1=O` [Example 48, 5-(difluoromethyl)-3-((1-((2-(hydroxymethyl)-4-methyl-6-oxo-1,6-dihydropyrimidin-5-yl)methyl)-6-oxo-4-(1,1,2,2-tetrafluoroethyl)-1,6-dihydropyrimidin-5-yl)oxy)-2-methylbenzonitrile], which EC50 is on record?
Answer: Its EC50 is 0.342 µM.

Question: For `Cc1nc(C)c(Cn2cnc(C(F)(F)C(F)F)c(Oc3c(C)cc(C#N)cc3Cl)c2=O)c(=O)[nH]1` [Example 98, 3-chloro-4-((1-((2,4-dimethyl-6-oxo-1,6-dihydropyrimidin-5-yl)methyl)-6-oxo-4-(1,1,2,2-tetrafluoroethyl)-1,6-dihydropyrimidin-5-yl)oxy)-5-methylbenzonitrile], which EC50 is on record?
Answer: Its EC50 is 0.183 µM.

Question: Which EC50 does the source give for `Cc1cc(C#N)c(F)c(Oc2c(C(F)(F)C(F)(F)F)ncn(Cc3c(C)nc(C)[nH]c3=O)c2=O)c1` [Example 93, 3-((1-((2,4-dimethyl-6-oxo-1,6-dihydropyrimidin-5-yl)methyl)-6-oxo-4-(perfluoroethyl)-1,6-dihydropyrimidin-5-yl)oxy)-2-fluoro-5-methylbenzonitrile] here?
Answer: Its EC50 is 0.172 µM.

Question: How did the EC50 turn out when `Cc1nc(C)c(Cn2cnc(C(F)(F)C(F)F)c(Oc3c(C)cc(C#N)cc3C(F)F)c2=O)c(=O)[nH]1` [Example 20, 3-(difluoromethyl)-4-((1-((2,4-dimethyl-6-oxo-1,6-dihydropyrimidin-5-yl)methyl)-6-oxo-4-(1,1,2,2-tetrafluoroethyl)-1,6-dihydropyrimidin-5-y1)oxy)-5-methylbenzonitrile] was run?
Answer: Its EC50 is 0.365 µM.

Question: With `Cc1c(C#N)cc(C(F)F)cc1Oc1c(C(F)(F)C(F)F)ncn(Cc2cnc(-c3cnn(C)c3)[nH]c2=O)c1=O` [Example 47, 5-(difluoromethyl)-2-methyl-3-((1-((2-(1-methyl-1H-pyrazol-4-yl)-6-oxo-1,6-dihydropyrimidin-5-yl)methyl)-6-oxo-4-(1,1,2,2-tetrafluoroethyl)-1,6-dihydropyrimidin-5-yl)oxy)benzonitrile] as the compound, how does the EC50 read?
Answer: The EC50 was 0.394 µM.
